Results taken from patent US7459522B2 (Affymax, Inc., priority 1999, dated 2008).
Bridge positions count the residues as written; N and C are the ends. Square brackets hold non-standard residues; d marks the D form. Ends that are not written are not given here. I, II: the chains in the order shown. 1Nal = N[C@@H](Cc1cccc2ccccc12)C(=O)O; βAla = NCCC(=O)O

Experiments:
huEPOR = target: T1, huEPOR (Homo sapiens, UniProt P19235); experiment: Ba/F3-huEPOR cell proliferation assay; assay type: cell-based; conditions: for EC50: concentration required to produce 50% of the maximal activity obtained with recombinant erythropoietin
T1 construct: expressed in transfected cells; host or cells: Ba/F3 (murine pro-B line, own knowledge) carrying huEPOR
T1 sequence (P19235 25-508): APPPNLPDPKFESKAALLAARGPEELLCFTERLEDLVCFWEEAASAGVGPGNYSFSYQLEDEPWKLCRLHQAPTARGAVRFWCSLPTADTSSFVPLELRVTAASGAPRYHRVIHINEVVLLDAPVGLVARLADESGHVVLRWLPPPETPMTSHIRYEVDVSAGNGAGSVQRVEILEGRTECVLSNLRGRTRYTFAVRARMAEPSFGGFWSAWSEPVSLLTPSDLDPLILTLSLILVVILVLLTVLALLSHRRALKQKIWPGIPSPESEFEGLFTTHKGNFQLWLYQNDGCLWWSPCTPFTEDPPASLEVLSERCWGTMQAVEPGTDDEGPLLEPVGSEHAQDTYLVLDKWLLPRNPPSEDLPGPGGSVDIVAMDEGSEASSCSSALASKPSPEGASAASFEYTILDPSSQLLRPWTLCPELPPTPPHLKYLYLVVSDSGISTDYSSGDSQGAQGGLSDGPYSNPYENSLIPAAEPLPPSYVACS
Source text: The protocol for each assay is described in Wrighton et al. (1997) Nature Biotechnology 15:1261-1265, and in U.S. Pat. Nos. 5,773,569 and 5,830,851, both to Wrighton et al. and cited earlier herein.

EPO receptor = conditions: single class of binding sites, 300 to 600 per cell surface; cited from earlier work

EC50 (huEPOR)	Substance	also measured
–	I: GGTYSCHFGPLT[1Nal]VCRPQGGK-NH2 / II: GGTYSCHFGPLT[1Nal]VCRPQGG (disulfide I:6-I:15, II:6-II:15; amide I:21-II:C) [Example 6]	in vitro bioactivity (huEPOR; FIG. 5, Isomer 1 compared with Isomer 2, Isomer 3 and the other compounds): noticeably higher
–	Erythropoietin [EPO]	Kd (EPO receptor): ~0.8 nM
5 nM	I: GGTYSCHFGPLT[1Nal]VCRPQGG[βAla]K-NH2 / II: GGTYSCHFGPLT[1Nal]VCRPQGG[βAla] (amide I:22-II:C; cysteines drawn unpaired) [Example 3]	–
6 nM	I: GGTYSCHFGPLT[1Nal]VCRPQGGK-NH2 / II: GGTYSCHFGPLT[1Nal]VCRPQGG (amide I:21-II:C; cysteines drawn unpaired) [Example 1]	–
